Experimental data published in article PMC10778824, “New Chalcone Derivatives Containing 2,4-Dichlorobenzenesulfonamide Moiety with Anticancer and Antioxidant Properties” (International Journal of Molecular Sciences, 2023).
Values after ≈ are worked out from the molar mass of the structure shown.

Columns and labels:
[1] = system: cervical cancer HeLa; experiment: MTT assay, HeLa cells; assay type: cell-based, human
Method: The human gastric adenocarcinoma AGS, cervical cancer HeLa, and acute promyelocytic leukemia HL-60 cells were obtained from the American Type Culture Collection (ATCC, Manassas, VA, USA). Human neonatal fibroblasts were obtained from LGC Standards (Luckenwalde, Germany). The HeLa and AGS lines were cultured in Dulbecco’s modified Eagle’s medium (DMEM) and DMEM/F12 medium, respectively. The HL-60 line was maintained in RPMI-1640 medium. Fibroblasts were cultured in Fibroblast Growth Medium with Supplement Mix. All the media were supplemented with 100 units/mL of penicillin, 100 µg/mL of streptomycin, and 10% (v/v) fetal bovine serum (FBS) (Merck Millipore, Burlington, MA, USA). The cells were incubated at 37 °C and 5% CO2.
To estimate the cytotoxic effect of the five compounds (4–8), MTT (3-(4,5-dimethylthiazol-2-yl)-2,5-diphenyltetrazolium bromide) assay was used. Oxaliplatin was used as a positive control in this test. All the cell lines were seeded in 96-well plates at a density of 5 × 10^3 cells/well and treated for 24 h with the compounds at concentrations of 0.5–40 µg/mL. Oxaliplatin was tested in the range of 20–400 µg/mL (50–1000 µM). After treatment, the cells were incubated with MTT (0.5 mg/mL; Merck Millipore, Burlington, MA, USA) for 3 h. Then, DMSO was used to dissolve formazan crystals, and the absorbance of the formazan solution was measured with a plate reader (Epoch, BioTek Instruments, Santa Clara, CA, USA). All the results (±standard deviation (SD)) were obtained from six repetitions in at least two independent experiments. The data are expressed as IC50 values (µg/mL).

[2] = system: caspase-8; experiment: Caspase-Glo 8 activity assay in AGS cells; assay type: cell-based, human; details: 24 h, relative to DMSO control
Method: The AGS cells were seeded in a 96-well plate (5 × 10^3 cells/well) and treated with compound 5 at concentrations of 1, 5, 7, and 10 µg/mL for 24 h; oxaliplatin at the concentration of 20 µg/mL; and DMSO (1%, v/v). The cells were then treated with reagents from Caspase-Glo 8 Assay or Caspase-Glo 9 Assay (Promega, Madison, WI, USA) and measured with the luminometer Glomax Multi + Detection System (Promega, Madison, WI, USA). The experiments were performed in two independent repeats in three repetitions.

**Q.** With `Cc1cc(S(=O)(=O)Nc2ccc(C(=O)/C=C/c3ccc(Br)cc3)cc2)c(Cl)cc1Cl` [Compound 5, (E)-N-{4-[3-(4-Bromophenyl)acryloyl]phenyl}-2,4-Dichloro-5-Methylbenzenesulfonamide] as the compound, how does the IC50 ([1]; Homo sapiens, HeLa, MTT, 24 h treatment) read?
**A.** 5.67 ± 0.35 µg/mL (≈ 10.8 µM)

**Q.** What about the “selectivity index HeLa” value ([1]; SI = IC50 noncancer cells/IC50 cancer cells, in relation to human neonatal fibroblasts) of the same compound?
**A.** 4.51

**Q.** And the caspase-8 relative activity ([2]; 1 µg/mL)?
**A.** 1.16 ± 0.15

**Q.** What about the caspase-8 relative activity ([2]; 5 µg/mL) of the same compound?
**A.** 3.53 ± 0.33

**Q.** And the caspase-8 relative activity ([2]; 7 µg/mL)?
**A.** 3.39 ± 0.28

**Q.** What about the caspase-8 relative activity ([2]; 10 µg/mL) of the same compound?
**A.** 2.99 ± 0.20
